Test results published in ChEMBL document CHEMBL2375216, “Molecular design, synthesis and biological evaluation of cyclic imides bearing benzenesulfonamide fragment as potential COX-2 inhibitors. Part 2” (Bioorg Med Chem Lett, 2013).

Columns and labels:
[1] = target: T1, Prostaglandin G/H synthase 1 (Ovis aries, UniProt P05979); test: Inhibition of ovine COX1-mediated prostaglandin alpha production by enzyme immuno assay
T1 sequence (P05979 whole entry): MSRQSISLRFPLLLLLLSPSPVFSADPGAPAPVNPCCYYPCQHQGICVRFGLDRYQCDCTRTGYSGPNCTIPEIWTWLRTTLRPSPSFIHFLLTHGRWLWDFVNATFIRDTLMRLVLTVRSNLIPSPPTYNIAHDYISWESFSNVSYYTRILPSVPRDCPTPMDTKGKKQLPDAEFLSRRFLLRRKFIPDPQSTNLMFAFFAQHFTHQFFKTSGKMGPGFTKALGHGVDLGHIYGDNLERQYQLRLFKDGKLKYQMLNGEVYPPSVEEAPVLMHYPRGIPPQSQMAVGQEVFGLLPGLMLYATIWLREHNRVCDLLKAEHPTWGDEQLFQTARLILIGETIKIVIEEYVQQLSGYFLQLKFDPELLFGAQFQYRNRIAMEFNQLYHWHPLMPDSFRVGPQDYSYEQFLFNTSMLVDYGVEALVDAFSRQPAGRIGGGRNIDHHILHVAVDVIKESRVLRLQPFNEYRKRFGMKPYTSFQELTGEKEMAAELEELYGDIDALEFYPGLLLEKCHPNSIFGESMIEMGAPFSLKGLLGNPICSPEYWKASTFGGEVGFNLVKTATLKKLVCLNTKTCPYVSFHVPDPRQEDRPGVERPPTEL

[2] = tested on: Rattus norvegicus; test: Antiinflammatory activity in ip dosed Sprague-Dawley rat assessed as inhibition of carrageenan-induced paw edema measured after 2 hrs plethysmometric analysis; format: functional

| IC50 [1] [µM] | Compound | ED50 [2] [mg/kg] |
| --- | --- | --- |
| > 100 | O=C(O)c1ccc(N2C(=O)c3cccc4cccc(c34)C2=O)cc1 |  |
| > 100 | NS(=O)(=O)c1ccc(N2C(=O)c3c(Cl)c(Cl)c(Cl)c(Cl)c3C2=O)cc1 |  |
| > 100 | O=C(O)c1ccc(N2C(=O)c3c(Cl)c(Cl)c(Cl)c(Cl)c3C2=O)cc1 |  |
| > 100 | NS(=O)(=O)c1ccc(CN2C(=O)c3ccc([N+](=O)[O-])cc3C2=O)cc1 | 72.4 |
| > 100 | NS(=O)(=O)c1ccc(N2C(=O)c3ccc([N+](=O)[O-])cc3C2=O)cc1 | 101 |
| > 100 | O=C(O)c1ccc(N2C(=O)c3ccc([N+](=O)[O-])cc3C2=O)cc1 |  |
| > 100 | NS(=O)(=O)c1ccc(CN2C(=O)c3nccnc3C2=O)cc1 | 126 |
| > 100 | NS(=O)(=O)c1ccc(N2C(=O)c3nccnc3C2=O)cc1 | 160 |
| > 100 | O=C(O)c1ccc(N2C(=O)c3nccnc3C2=O)cc1 |  |
| > 100 | NS(=O)(=O)c1ccc(CN2C(=O)c3cccc4cccc(c34)C2=O)cc1 | 200 |
| > 100 | NS(=O)(=O)c1ccc(N2C(=O)c3cccc4cccc(c34)C2=O)cc1 | 210 |
| > 100 | NS(=O)(=O)c1ccc(CN2C(=O)CCC2=O)cc1 |  |
| > 100 | NS(=O)(=O)c1ccc(N2C(=O)CCC2=O)cc1 |  |
| > 100 | O=C(O)c1ccc(N2C(=O)CCC2=O)cc1 |  |
| > 100 | NS(=O)(=O)c1ccc(CN2C(=O)[C@H]3CC=CC[C@H]3C2=O)cc1 |  |
| > 100 | NS(=O)(=O)c1ccc(N2C(=O)[C@H]3CC=CC[C@H]3C2=O)cc1 |  |

| IC50 [1] [µM] | Compound | ED50 [2] [mg/kg] |
| --- | --- | --- |
| > 100 | O=C(O)c1ccc(N2C(=O)[C@H]3CC=CC[C@H]3C2=O)cc1 |  |
| > 100 | NS(=O)(=O)c1ccc(CN2C(=O)c3ccccc3C2=O)cc1 |  |
| > 100 | Cc1ccc2c(c1)C(=O)N(Cc1ccc(S(N)(=O)=O)cc1)C2=O |  |
| > 100 | Cc1ccc2c(c1)C(=O)N(c1ccc(S(N)(=O)=O)cc1)C2=O |  |
| > 100 | Cc1ccc2c(c1)C(=O)N(c1ccc(C(=O)O)cc1)C2=O |  |
| > 100 | CC(C)(C)c1ccc2c(c1)C(=O)N(Cc1ccc(S(N)(=O)=O)cc1)C2=O |  |
| > 100 | CC(C)(C)c1ccc2c(c1)C(=O)N(c1ccc(S(N)(=O)=O)cc1)C2=O |  |
| > 100 | CC(C)(C)c1ccc2c(c1)C(=O)N(c1ccc(C(=O)O)cc1)C2=O |  |
| > 100 | NS(=O)(=O)c1ccc(CN2C(=O)c3cc(Cl)c(Cl)cc3C2=O)cc1 | 100 |
| > 100 | NS(=O)(=O)c1ccc(N2C(=O)c3cc(Cl)c(Cl)cc3C2=O)cc1 | 111 |
| > 100 | O=C(O)c1ccc(N2C(=O)c3cc(Cl)c(Cl)cc3C2=O)cc1 |  |
| > 100 | NS(=O)(=O)c1ccc(CN2C(=O)c3c(Cl)c(Cl)c(Cl)c(Cl)c3C2=O)cc1 |  |
| > 100 | O=C(O)c1ccc(N2C(=O)c3ccccc3C2=O)cc1 |  |
| > 100 | NS(=O)(=O)c1ccc(N2C(=O)c3ccccc3C2=O)cc1 |  |
|  | Cc1ccc(-c2cc(C(F)(F)F)nn2-c2ccc(S(N)(=O)=O)cc2)cc1 [CELECOXIB] | 83.4 |
